“And” between values parts separate entries of the source, which are not always exact repeats. Equal values may be shown once. Inconclusive results and toxic doses are left out.

This assay concerns P388 leukemia ip, CD2F1 mice, survival T/C. Briefly: NCI In Vivo Anticancer Drug Screen. Data for tumor model P388 Leukemia (intraperitoneal) in CD2F1 (CDF1) mice. The settings on record: endpoint: median survival time, higher = longer survival. In outline:
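Mice carrying the transplanted tumor received test compound or vehicle. Survival was recorded in each group, and the value is the treated-group measurement divided by that of the vehicle-treated control group.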

The mark [1] stands for this setting: dose: 100.0 mg/kg/injection, schedule: Q04DX003 (ip), vehicle: saline.
Where [2] appears, read: dose: 400.0 mg/kg/injection, schedule: Q04DX003 (ip), vehicle: saline.
[3] abbreviates: dose: 60.0 mg/kg/injection, schedule: Q01DX005 (ip), vehicle: Klucel (hydroxypropylcellulose) (HPC).
Setting [4] is: dose: 120.0 mg/kg/injection, schedule: Q01DX005 (ip), vehicle: Klucel (hydroxypropylcellulose) (HPC).
Setting [5] is: dose: 25.0 mg/kg/injection, schedule: Q04DX003 (ip), vehicle: saline with Tween-80.
The mark [6] stands for this setting: dose: 50.0 mg/kg/injection, schedule: Q01DX009 (ip), vehicle: saline with Tween-80.
Setting [7] is: dose: 50.0 mg/kg/injection, schedule: Q04DX003 (ip), vehicle: saline with Tween-80.
[8] abbreviates: dose: 100.0 mg/kg/injection, schedule: Q04DX003 (ip), vehicle: saline with Tween-80.
[9] abbreviates: dose: 50.0 mg/kg/injection, schedule: Q01DX005 (ip), vehicle: saline with Tween-80.
Setting [10] is: dose: 100.0 mg/kg/injection, schedule: Q01DX005 (ip), vehicle: saline with Tween-80.
Where [11] appears, read: dose: 200.0 mg/kg/injection, schedule: Q01DX005 (ip), vehicle: saline with Tween-80.
Setting [12] is: dose: 100.0 mg/kg/injection, schedule: Q01DX009 (ip), vehicle: saline with Tween-80.
The mark [13] stands for this setting: dose: 200.0 mg/kg/injection, schedule: Q01DX009 (ip), vehicle: saline with Tween-80.
The mark [14] stands for this setting: dose: 50.0 mg/kg/injection, schedule: Q01DX005 (ip), vehicle: Klucel (hydroxypropylcellulose) (HPC).
Setting [15] is: dose: 100.0 mg/kg/injection, schedule: Q01DX005 (ip), vehicle: Klucel (hydroxypropylcellulose) (HPC).
[16] abbreviates: dose: 60.0 mg/kg/injection, schedule: Q01DX005 (ip), vehicle: saline with Tween-80.
Setting [17] is: dose: 120.0 mg/kg/injection, schedule: Q01DX005 (ip), vehicle: saline with Tween-80.
The mark [18] stands for this setting: dose: 240.0 mg/kg/injection, schedule: Q01DX005 (ip), vehicle: saline with Tween-80.

For the compound `O=C(O)c1c[nH]c2cc(OCCOc3ccc(F)cc3)ccc2c1=O`, the T/C was 105 % of control under setting [1]; 105 % of control (dose: 200.0 mg/kg/injection, schedule: Q04DX003 (ip), vehicle: saline); 104 % of control under setting [2].
Regarding `Oc1cc2c(cc1C(c1ccc(F)cc1)n1ccnc1)OCO2` (configuration not stated), the T/C reads like this: under setting [3], 96 % of control; under setting [4], 94 % of control; (dose: 240.0 mg/kg/injection, schedule: Q01DX005 (ip), vehicle: Klucel (hydroxypropylcellulose) (HPC)) 91 % of control.
For `COc1ccccc1N1CCN(CCc2c[nH]c3cc4c(cc23)OCO4)CC1`, the T/C runs as follows: (dose: 6.25 mg/kg/injection, schedule: Q01DX009 (ip), vehicle: saline with Tween-80) 92 % of control; (dose: 12.5 mg/kg/injection, schedule: Q01DX009 (ip), vehicle: saline with Tween-80) 100 % of control; (dose: 12.5 mg/kg/injection, schedule: Q04DX003 (ip), vehicle: saline with Tween-80) 114 % of control; (dose: 18.75 mg/kg/injection, schedule: Q01DX009 (ip), vehicle: Klucel (hydroxypropylcellulose) (HPC)) 108 % of control; (dose: 25.0 mg/kg/injection, schedule: Q01DX009 (ip), vehicle: saline with Tween-80) 101 % of control; under setting [5], 120 % of control. The T/C by setting is: (dose: 37.5 mg/kg/injection, schedule: Q01DX009 (ip), vehicle: Klucel (hydroxypropylcellulose) (HPC)) 101 % of control; under setting [6], 104 % of control; under setting [7], 123 % of control; (dose: 75.0 mg/kg/injection, schedule: Q01DX009 (ip), vehicle: Klucel (hydroxypropylcellulose) (HPC)) 88 % of control; under setting [8], 121 % of control.
With `CCN(CC)c1ncnc2c1ncn2Cc1ccc(C(=O)OC)cc1`, the T/C is, setting by setting: under setting [9], 100 % of control; under setting [10], 100 % of control; under setting [11], 94 % of control.
Regarding `c1cnc2nsnc2c1`, the T/C (dose: 12.5 mg/kg/injection, schedule: Q01DX009 (ip), vehicle: Klucel (hydroxypropylcellulose) (HPC)) is 100 % of control; the T/C (dose: 25.0 mg/kg/injection, schedule: Q01DX009 (ip), vehicle: Klucel (hydroxypropylcellulose) (HPC)) was 97 % of control; the T/C (dose: 50.0 mg/kg/injection, schedule: Q01DX009 (ip), vehicle: Klucel (hydroxypropylcellulose) (HPC)) was 100 % of control and 106 % of control.
With `COC(=O)CCc1onc(Br)c1CCl`, the T/C runs as follows: under setting [6], 110 % of control; under setting [12], 115 % of control; under setting [13], 119 % of control.
For the compound `c1nc(N2CCCCC2)c2[nH]cnc2n1`, the T/C is, setting by setting: under setting [14], 109 % of control; under setting [15], 104 % of control.
Consider `O=C(CCS(=O)(=O)CCC(=O)c1ccc2ccccc2c1)c1ccc2ccccc2c1`, for which the T/C is, setting by setting: (dose: 25.0 mg/kg/injection, schedule: Q04DX003 (ip), vehicle: saline) 102 % of control; (dose: 50.0 mg/kg/injection, schedule: Q04DX003 (ip), vehicle: saline) 99 % of control; under setting [1], 92 % of control and 98 % of control; under setting [2], 88 % of control.
On to `O=C(O)c1cccc2c1Cc1cc([N+](=O)[O-])ccc1-2`, for which the T/C under setting [14] was 95 % of control and the T/C under setting [15] was 103 % of control.
As for `CCN(CC)CCCNCc1cc(-c2ccccc2)nc2ccccc12`, the T/C is, setting by setting: under setting [9], 101 % of control; under setting [10], 100 % of control; under setting [11], 95 % of control.
Taken in the same sequence, the figures for `CCC(=O)OC1CCC2C3CCC(=O)OC3C(C)(CCC(=O)O)CC12C` (configuration not stated) were 93 % of control, 99 % of control and 90 % of control.
For the compound `CN1CCC2c3c([nH]c4ccccc34)C(C)(C)OC2C1` (configuration not stated), the T/C is 111 % of control under setting [16], 113 % of control under setting [17] and 118 % of control under setting [18].
Taken in the same sequence, the figures for `Cc1ccc(S(=O)(=O)OCCC(C)OS(=O)(=O)c2ccc(C)cc2)cc1` (configuration not stated) were 100 % of control, 100 % of control and 101 % of control.
With `CCOC(=O)c1c(C(=O)Nc2ccccc2)c(-c2ccccc2)n(NC(=O)c2cccc(Cl)c2)c1C`, the T/C runs as follows: under setting [3], 98 % of control; under setting [4], 94 % of control.
Regarding `O=NNc1nc2ccccc2[nH]1`, the T/C was 99 % of control (dose: 3.12 mg/kg/injection, schedule: Q01DX009 (ip), vehicle: water); 103 % of control (dose: 6.25 mg/kg/injection, schedule: Q01DX009 (ip), vehicle: water); 109 % of control (dose: 12.5 mg/kg/injection, schedule: Q01DX009 (ip), vehicle: water); 103 % of control and 98 % of control (dose: 25.0 mg/kg/injection, schedule: Q01DX009 (ip), vehicle: water); 100 % of control and 97 % of control (dose: 50.0 mg/kg/injection, schedule: Q01DX009 (ip), vehicle: water); 97 % of control (dose: 100.0 mg/kg/injection, schedule: Q01DX009 (ip), vehicle: water). In addition, the T/C (dose: 200.0 mg/kg/injection, schedule: Q01DX009 (ip), vehicle: water) is 91 % of control.
With `Cc1ccc(S(=O)(=O)Cc2ccccc2)cc1`, the T/C is 90 % of control (dose: 50.0 mg/kg/injection, schedule: Q04DX003 (ip), vehicle: other); 95 % of control (dose: 100.0 mg/kg/injection, schedule: Q04DX003 (ip), vehicle: other); 90 % of control (dose: 200.0 mg/kg/injection, schedule: Q04DX003 (ip), vehicle: other).
As for `CCOC(=O)N(C)N=NCCCl`, the T/C (dose: 7.5 mg/kg/injection, schedule: Q01DX005 (ip), vehicle: saline with Tween-80) was 117 % of control; the T/C (dose: 15.0 mg/kg/injection, schedule: Q01DX005 (ip), vehicle: saline with Tween-80) was 118 % of control; the T/C (dose: 30.0 mg/kg/injection, schedule: Q01DX005 (ip), vehicle: saline with Tween-80) was 175 % of control; the T/C under setting [16] was 94 % of control.
As to `CCC(O)C1Sc2ccccc2N1C` (configuration not stated), the T/C runs as follows: under setting [16], 104 % of control; under setting [17], 101 % of control; under setting [18], 106 % of control.
For `CSc1nnc2nc[nH]n12`, the T/C (dose: 100.0 mg/kg/injection, schedule: Q01DX001 (ip), vehicle: saline with Tween-80) is 102 % of control and the T/C (dose: 200.0 mg/kg/injection, schedule: Q01DX001 (ip), vehicle: saline with Tween-80) is 98 % of control.
On to `COc1ccc(O)c(C(c2cc(OC)ccc2O)c2cc(OC)ccc2O)c1`, for which the T/C under setting [6] was 115 % of control, the T/C under setting [12] is 115 % of control and the T/C under setting [13] is 115 % of control.
Regarding `CCOC(=O)C1CC1C(c1cccnc1C)S(=O)(=O)c1ccccc1` (configuration not stated), the T/C was 100 % of control (dose: 100.0 mg/kg/injection, schedule: Q04DX002 (ip), vehicle: saline with Tween-80); 99 % of control (dose: 200.0 mg/kg/injection, schedule: Q04DX002 (ip), vehicle: saline with Tween-80); 97 % of control (dose: 400.0 mg/kg/injection, schedule: Q04DX002 (ip), vehicle: saline with Tween-80).
As for `[C-]#[N+]C1CCCCC1.[C-]#[N+]C1CCCCC1.[Ni].[S-]c1ccccc1.[S-]c1ccccc1`, the T/C is 89 % of control under setting [5]; 91 % of control under setting [7]; 89 % of control and 93 % of control under setting [8].
`COC(=O)C1CSC(c2c(COP(=O)(O)O)cnc(C)c2O)N1` (configuration not stated): the T/C reads like this: (dose: 100.0 mg/kg/injection, schedule: Q01DX001 (ip), vehicle: saline) 103 % of control; (dose: 200.0 mg/kg/injection, schedule: Q01DX001 (ip), vehicle: saline) 105 % of control; (dose: 400.0 mg/kg/injection, schedule: Q01DX001 (ip), vehicle: saline) 96 % of control.
`O=C1C=CC2(O)CCCN12` (configuration not stated): the T/C (dose: 5.0 mg/kg/injection, schedule: Q01DX005 (ip), vehicle: saline) was 106 % of control; the T/C (dose: 10.0 mg/kg/injection, schedule: Q01DX005 (ip), vehicle: saline) was 110 % of control; the T/C (dose: 20.0 mg/kg/injection, schedule: Q01DX005 (ip), vehicle: saline) is 118 % of control.

For the origin of these results see PubChem BioAssay AID330 (DTP/NCI, 2004).
